One data set relates to Plasmodium falciparum. Description: Antiplasmodial activity against chloroquine and sulfadoxine-resistant and mefloquine-sensitive Plasmodium falciparum W2 infected in human erythrocytes by anti-HRP2 assay. In kind it is functional, organism-based.
Data set [1] in a line: Selectivity index, ratio of MLC50 for African green monkey BGM cells to IC50 for chloroquine and sulfadoxine-resistant and mefloquine-sensitive Plasmodium falciparum W2. The class given is toxicity, cell-based. As to conditions: read-out: Selectivity Index.
Data set [2] can be described thus: Cytotoxicity against African green monkey BGM cells incubated for 18 hrs by neutral red assay. Particulars: chlorocebus aethiops, read-out: MLC50. In kind it is cell-based.
Data set [3] deals with Plasmodium berghei. Description: Antiplasmodial activity against Plasmodium berghei NK65 infected in mouse assessed as inhibition of inhibition of parasitemia at 10 mg/kg, po treated for 3 consecutive days 24 hrs after parasite infection and measured on day 5 after inoculation by Giemsa staining based microscopy. The class given is functional.
Data set [4] relates to Plasmodium berghei. The experiment in a line: Antiplasmodial activity against Plasmodium berghei NK65 infected in mouse assessed as inhibition of inhibition of parasitemia at 10 mg/kg, po treated for 3 consecutive days 24 hrs after parasite infection and measured on day 7 after inoculation by Giemsa staining based microscopy. In kind it is functional.
In data set [5] the test system is Plasmodium berghei. The experiment in a line: Antiplasmodial activity against Plasmodium berghei NK65 infected in mouse assessed as inhibition of inhibition of parasitemia at 20 mg/kg, po treated for 3 consecutive days 24 hrs after parasite infection and measured on day 7 after inoculation by Giemsa staining based microscopy. In kind it is functional.
The test system of data set [6] is Plasmodium berghei. Description: Antiplasmodial activity against Plasmodium berghei NK65 infected in mouse assessed as inhibition of inhibition of parasitemia at 20 mg/kg, po treated for 3 consecutive days 24 hrs after parasite infection and measured on day 5 after inoculation by Giemsa staining based microscopy. The class given is functional.
In data set [7] the test system is Plasmodium berghei. Description: Antiplasmodial activity against Plasmodium berghei NK65 infected in mouse assessed as inhibition of inhibition of parasitemia at 1 mg/kg, po treated for 3 consecutive days 24 hrs after parasite infection and measured on day 5 after inoculation by Giemsa staining based microscopy. In kind it is functional.
For data set [8], the system named is Plasmodium berghei. The experiment in a line: Antiplasmodial activity against Plasmodium berghei NK65 infected in mouse assessed as inhibition of inhibition of parasitemia at 1 mg/kg, po treated for 3 consecutive days 24 hrs after parasite infection and measured on day 7 after inoculation by Giemsa staining based microscopy. The class given is functional.

pIC50: −log10 of the molar value.

On to `O=S(=O)(NCCNc1ccnc2cc(Cl)ccc12)c1ccc(Cl)cc1`, for which, in the data set on Plasmodium falciparum, the pIC50 (in general, −log10 of the IC50, conventionally taken in molar units) was 6.17. Also, in data set [1], the selectivity ratio came to 171. The CC50 at 18 h in data set [2] came to 116 µM.
In the data set on Plasmodium falciparum, `O=S(=O)(NCCNc1ccnc2cc(Cl)ccc12)c1ccccc1` gave a pIC50 of 5.79. Besides, the selectivity ratio in [1] was found to be 74.7. Further, the CC50 at 18 h in data set [2] came out at 122 µM.
Regarding `Cc1ccc(S(=O)(=O)NCCNc2ccnc3cc(Cl)ccc23)cc1`, in the data set on Plasmodium falciparum, the pIC50 is 6.32. Besides, in [1], the selectivity ratio is 261. For the same compound, the CC50 at 18 h in [2] amounted to 125 µM.
In the case of `O=S(=O)(NCCNc1ccnc2cc(Cl)ccc12)c1ccc(Br)cc1`, the pIC50 with Plasmodium falciparum was 5.92. The selectivity ratio in [1] was 73.3. Also, the CC50 at 18 h in data set [2] amounted to 88.8 µM.
The compound `O=S(=O)(NCCNc1ccnc2cc(Cl)ccc12)c1ccc(F)cc1` had a pIC50 in the data set on Plasmodium falciparum of 5.95. Moreover, in data set [1], the selectivity ratio turned out to be 180. Further, the CC50 at 18 h in data set [2] was 203 µM.
For `O=S(=O)(NCCCNc1ccnc2cc(Cl)ccc12)c1ccccc1`, in that order: 6.46, 784 and 275 µM.
Regarding `Cc1ccc(S(=O)(=O)NCCCNc2ccnc3cc(Cl)ccc23)cc1`, the pIC50 in the data set with Plasmodium falciparum was 6.55. The selectivity ratio in data set [1] was found to be 339. In addition, the CC50 at 18 h in [2] was 95 µM.
The compound `O=S(=O)(NCCCNc1ccnc2cc(Cl)ccc12)c1ccc(Cl)cc1` gave a negative-log IC50 (pIC50) in the data set on Plasmodium falciparum of 6.57. Besides, the selectivity ratio in [1] amounted to 380. The CC50 at 18 h in data set [2] was determined as 103 µM.
Take `O=S(=O)(NCCCNc1ccnc2cc(Cl)ccc12)c1ccc(Br)cc1`: the pIC50 in the data set on Plasmodium falciparum was 6.54. The selectivity ratio in data set [1] was 75.8. Further, the CC50 at 18 h in [2] was 22 µM.
`O=S(=O)(NCCCNc1ccnc2cc(Cl)ccc12)c1ccc(F)cc1` gave a pIC50 with Plasmodium falciparum of 7.00. Moreover, the values for the inhibition in vivo at 10 mg/kg in the data set with Plasmodium berghei [3] and in the data set with Plasmodium berghei [4] were 47% and 27%, respectively. For the same compound, the selectivity ratio in data set [1] is 3390. In addition, the CC50 at 18 h in data set [2] was found to be 339 µM.
With `O=S(=O)(NCCCCNc1ccnc2cc(Cl)ccc12)c1ccccc1`, the pIC50 in the data set with Plasmodium falciparum was 6.40. The selectivity ratio in data set [1] is over 642. Moreover, the CC50 at 18 h in [2] is over 257 µM.
In the data set with Plasmodium falciparum, `O=S(=O)(NCCCCNc1ccnc2cc(Cl)ccc12)c1ccc(Cl)cc1` gave a pIC50 of 7.05. Also, the inhibition in vivo (in general, the relative decrease from the control value, in per cent) at 10 mg/kg turned out to be 49% in the data set with Plasmodium berghei [3] and 33% in the data set with Plasmodium berghei [4]. Moreover, in data set [1], the selectivity ratio came out at 1100. Also, the CC50 at 18 h in data set [2] came out at 99.2 µM.
Compound `O=S(=O)(NCCCCNc1ccnc2cc(Cl)ccc12)c1ccc(Br)cc1` showed a pIC50 in the data set with Plasmodium falciparum of 6.82. Moreover, the selectivity ratio in data set [1] turned out to be 99.3. In addition, the CC50 at 18 h in data set [2] came out at 14.9 µM.
In the data set with Plasmodium falciparum, `O=S(=O)(NCCCCNc1ccnc2cc(Cl)ccc12)c1ccc(F)cc1` gave a pIC50 of 6.82. For the same compound, the inhibition in vivo at 10 mg/kg was 30% with Plasmodium berghei [3] and 7% in the data set on Plasmodium berghei [4]. For the same compound, the selectivity ratio in [1] stood at 1030. For the same compound, the CC50 at 18 h in data set [2] amounted to 155 µM.
The compound `Cc1ccc(S(=O)(=O)NCCCCNc2ccnc3cc(Cl)ccc23)cc1` had a pIC50 in the data set on Plasmodium falciparum of 7.30. Also, the inhibition in vivo at 10 mg/kg in the data set on Plasmodium berghei [3] stood at 27%; with Plasmodium berghei [4], 0%. Moreover, the selectivity ratio in [1] is 2490. The CC50 at 18 h in data set [2] came out at 107 µM.
Take `CCN(CC)CCCC(C)Nc1ccnc2cc(Cl)ccc12` (centres undefined) [CHLOROQUINE]: the inhibition in vivo at 20 mg/kg in the data set with Plasmodium berghei [5] turned out to be 76%; with Plasmodium berghei [6], 93%.
As to `COc1ncnc(NS(=O)(=O)c2ccc(N)cc2)c1OC` [SULFADOXINE], the inhibition in vivo at 1 mg/kg in the data set with Plasmodium berghei [7] is 100%; in the data set on Plasmodium berghei [8], 96%. Moreover, the pIC50 in the data set with Plasmodium falciparum was under 4.81. For the same compound, the CC50 at 18 h in [2] was over 310 µM.
